Measured values reported in PubChem BioAssay AID256 (DTP/NCI, 2004).
“And” between values parts separate entries of the source, which are not always exact repeats. Identical values can stand only once. Toxic doses and inconclusive results are not listed. The calls were made as follows: active = survival T/C of 150% or more; inactive = T/C below 125% in these data.

System: CD2F1 mice, L1210 leukemia ip, survival T/C
Assay: NCI In Vivo Anticancer Drug Screen. Data for tumor model L1210 Leukemia (intraperitoneal) in CD2F1 (CDF1) mice
Settings: higher = longer survival
In short: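 Tumor-bearing mice (transplanted tumor) were split into treated and vehicle control groups, and the measured endpoint of each treated group was divided by that of its vehicle controls.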

[1] = endpoint: mean survival time, dose: 50.0 mg/kg/injection, schedule: Q04DX002 (ip), vehicle: saline with Tween-80
[2] = endpoint: mean survival time, dose: 100.0 mg/kg/injection, schedule: Q04DX002 (ip), vehicle: saline with Tween-80
[3] = endpoint: mean survival time, dose: 200.0 mg/kg/injection, schedule: Q04DX002 (ip), vehicle: saline with Tween-80
[4] = endpoint: mean survival time, dose: 100.0 mg/kg/injection, schedule: Q04DX003 (ip), vehicle: saline with Tween-80
[5] = endpoint: mean survival time, dose: 200.0 mg/kg/injection, schedule: Q04DX003 (ip), vehicle: saline with Tween-80
[6] = endpoint: mean survival time, dose: 400.0 mg/kg/injection, schedule: Q04DX003 (ip), vehicle: saline with Tween-80
[7] = endpoint: mean survival time, dose: 100.0 mg/kg/injection, schedule: Q01DX009 (ip), vehicle: saline with Tween-80
[8] = endpoint: mean survival time, dose: 200.0 mg/kg/injection, schedule: Q01DX009 (ip), vehicle: saline with Tween-80

Measured: T/C

CC(=O)SCC1C(=O)n2c(cc3ccccc32)C(=O)N1C (stereo not drawn)
inactive: [1] 89 % of control | [2] 96 % of control | [3] 101 % of control

O=C1NC(O)CCN1C1OC(CO)C(O)C1O (stereo not drawn)
inactive: endpoint: median survival time, dose: 10.0 mg/kg/injection, schedule: Q01DX009 (ip), vehicle: saline 106 % of control and 107 % of control | endpoint: median survival time, dose: 12.5 mg/kg/injection, schedule: Q01DX001 (oral), vehicle: saline 101 % of control | endpoint: median survival time, dose: 21.88 mg/kg/injection, schedule: Q01DX009 (ip), vehicle: saline 102 % of control | endpoint: median survival time, dose: 25.0 mg/kg/injection, schedule: Q01DX001 (oral), vehicle: saline 102 % of control | endpoint: median survival time, dose: 30.0 mg/kg/injection, schedule: Q01DX009 (ip), vehicle: saline 104 % of control | endpoint: median survival time, dose: 50.0 mg/kg/injection, schedule: Q01DX001 (oral), vehicle: saline 101 % of control | endpoint: median survival time, dose: 100.0 mg/kg/injection, schedule: Q01DX001 (oral), vehicle: saline 97 % of control | endpoint: median survival time, dose: 100.0 mg/kg/injection, schedule: Q01DX009 (ip), vehicle: saline 105 % of control | endpoint: median survival time, dose: 200.0 mg/kg/injection, schedule: Q01DX001 (oral), vehicle: saline 102 % of control | endpoint: median survival time, dose: 300.0 mg/kg/injection, schedule: Q01DX009 (ip), vehicle: saline 106 % of control | endpoint: median survival time, dose: 1000.0 mg/kg/injection, schedule: Q01DX009 (ip), vehicle: saline 100 % of control and 108 % of control

CCCCCC/C=C\C(=O)O
inactive: endpoint: mean survival time, dose: 50.0 mg/kg/injection, schedule: Q01DX009 (ip), vehicle: saline 101 % of control | endpoint: mean survival time, dose: 100.0 mg/kg/injection, schedule: Q01DX009 (ip), vehicle: saline 97 % of control | [4] 98 % of control | endpoint: mean survival time, dose: 200.0 mg/kg/injection, schedule: Q01DX009 (ip), vehicle: saline 93 % of control | [5] 93 % of control | [6] 87 % of control

O=C(OCc1ccccc1)C1CC1 (tested in a mixture with another compound)
inactive: endpoint: mean survival time, dose: 25.0 mg/kg/injection, schedule: Q01DX009 (ip), vehicle: saline with Tween-80 86 % of control | endpoint: mean survival time, dose: 50.0 mg/kg/injection, schedule: Q01DX005 (ip), vehicle: saline with Tween-80 101 % of control | endpoint: mean survival time, dose: 50.0 mg/kg/injection, schedule: Q01DX009 (ip), vehicle: saline with Tween-80 96 % of control | endpoint: mean survival time, dose: 50.0 mg/kg/injection, schedule: Q04DX002 (ip), vehicle: saline 102 % of control | endpoint: mean survival time, dose: 100.0 mg/kg/injection, schedule: Q01DX005 (ip), vehicle: saline with Tween-80 93 % of control | [7] 86 % of control | endpoint: mean survival time, dose: 100.0 mg/kg/injection, schedule: Q04DX002 (ip), vehicle: saline 97 % of control | endpoint: mean survival time, dose: 200.0 mg/kg/injection, schedule: Q01DX005 (ip), vehicle: saline with Tween-80 97 % of control | [8] 86 % of control | endpoint: mean survival time, dose: 200.0 mg/kg/injection, schedule: Q04DX002 (ip), vehicle: saline 105 % of control | endpoint: mean survival time, dose: 400.0 mg/kg/injection, schedule: Q04DX002 (ip), vehicle: saline 97 % of control

CN(C)C(=O)c1cccc(COc2ccc([N+](=O)[O-])cc2Cl)c1
inactive: endpoint: mean survival time, dose: 100.0 mg/kg/injection, schedule: Q01DX009 (ip), vehicle: saline sonified 102 % of control | [4] 101 % of control | endpoint: mean survival time, dose: 200.0 mg/kg/injection, schedule: Q01DX009 (ip), vehicle: saline sonified 98 % of control | [5] 103 % of control | [6] 95 % of control

COC(=O)C1C(O)C(C)C(O)C(C)/C=C\C=C(C)C(=O)Nc2c(C)c(OC(C)=O)c3c(c2O)C(=O)C(C)=C2OCOC(=C23)C(C)=CC(C)(O)C(O)C(C)C1O (stereo not drawn)
inactive: endpoint: mean survival time, dose: 50.0 mg/kg/injection, schedule: Q04DX003 (ip), vehicle: saline with Tween-80 95 % of control | [4] 98 % of control | [5] 92 % of control

CC1=CC(O)(C2(O)C=C(C)CC(C)(C)C2)CC(C)(C)C1 (stereo not drawn)
inactive: endpoint: mean survival time, dose: 100.0 mg/kg/injection, schedule: Q01DX009 (ip), vehicle: other 102 % of control | endpoint: mean survival time, dose: 100.0 mg/kg/injection, schedule: Q04DX003 (ip), vehicle: other 102 % of control | endpoint: mean survival time, dose: 200.0 mg/kg/injection, schedule: Q01DX009 (ip), vehicle: other 90 % of control | endpoint: mean survival time, dose: 200.0 mg/kg/injection, schedule: Q04DX003 (ip), vehicle: other 96 % of control | endpoint: mean survival time, dose: 400.0 mg/kg/injection, schedule: Q01DX009 (ip), vehicle: other 88 % of control | endpoint: mean survival time, dose: 400.0 mg/kg/injection, schedule: Q04DX003 (ip), vehicle: other 94 % of control

NC(N)=N/C(N)=N\c1cnc([N+](=O)[O-])s1
inactive: endpoint: mean survival time, dose: 75.0 mg/kg/injection, schedule: Q01DX001 (ip), vehicle: saline 96 % of control | endpoint: mean survival time, dose: 150.0 mg/kg/injection, schedule: Q01DX001 (ip), vehicle: saline 101 % of control | endpoint: mean survival time, dose: 300.0 mg/kg/injection, schedule: Q01DX001 (ip), vehicle: saline 93 % of control

CCOC(=O)c1c(-c2ccccc2)[nH]c(C)cc1=O
inactive: [2] 100 % of control | [3] 100 % of control | endpoint: mean survival time, dose: 400.0 mg/kg/injection, schedule: Q04DX002 (ip), vehicle: saline with Tween-80 100 % of control

O=C(O)Cc1cc2c(cc1I)OCO2
inactive: [4] 100 % of control | [5] 95 % of control | [6] 101 % of control

C[P+](CP(=O)(c1ccccc1)c1ccccc1)(c1ccccc1)c1ccccc1
inactive: endpoint: mean survival time, dose: 25.0 mg/kg/injection, schedule: Q04DX002 (ip), vehicle: saline with Tween-80 107 % of control | [1] 92 % of control | [2] 96 % of control

c1ccc(COCCOc2ccccc2)cc1
inactive: [4] 96 % of control | [5] 98 % of control | [6] 102 % of control

NS(=O)(=O)c1ccc(Cl)c(Cl)c1
inactive: [7] 108 % of control | [8] 111 % of control

Cc1ccc(NC(=O)c2ccccc2C(=O)O)cc1
inactive: [4] 101 % of control | [5] 97 % of control | [6] 95 % of control

Cc1ccc([P+](=O)O)cc1Cl
inactive: endpoint: mean survival time, dose: 100.0 mg/kg/injection, schedule: Q04DX003 (ip), vehicle: saline 102 % of control | endpoint: mean survival time, dose: 200.0 mg/kg/injection, schedule: Q04DX003 (ip), vehicle: saline 97 % of control | endpoint: mean survival time, dose: 400.0 mg/kg/injection, schedule: Q04DX003 (ip), vehicle: saline 103 % of control

COC1OCC(N=[N+]=[N-])C(OS(C)(=O)=O)C1OS(C)(=O)=O (stereo not drawn)
inactive: endpoint: mean survival time, dose: 100.0 mg/kg/injection, schedule: Q01DX001 (ip), vehicle: saline with Tween-80 95 % of control | [7] 101 % of control | endpoint: mean survival time, dose: 200.0 mg/kg/injection, schedule: Q01DX001 (ip), vehicle: saline with Tween-80 98 % of control and 94 % of control | endpoint: mean survival time, dose: 400.0 mg/kg/injection, schedule: Q01DX001 (ip), vehicle: saline with Tween-80 94 % of control and 101 % of control | endpoint: mean survival time, dose: 400.0 mg/kg/injection, schedule: Q01DX009 (ip), vehicle: saline with Tween-80 97 % of control
